According to ChEMBL document CHEMBL5096146, “Porphyrin and phthalocyanine photosensitizers designed for targeted photodynamic therapy of colorectal cancer” (Bioorg Med Chem, 2021):
Converted amounts (≈) assume the structure as drawn.

Columns and labels:
HT-29 [1] = assay: Photodynamic cytotoxicity against human HT-29 cells assessed as reduction in cell viability incubated for 3 hrs followed by fresh medium replacement and subsequent white LED irradiation measured after 24 hrs by MTT assay relative to control; type: functional
HT-29 [2] = assay: Photodynamic cytotoxicity against human HT-29 cells assessed as reduction in cell viability incubated for 3 hrs followed by fresh medium replacement and subsequent blue LED irradiation measured after 24 hrs by MTT assay relative to control; type: functional
HT-29 [3] = assay: Photodynamic cytotoxicity against human HT-29 cells assessed as reduction in cell viability incubated for 3 hrs followed by fresh medium replacement and subsequent red LED irradiation measured after 24 hrs by MTT assay relative to control; type: functional
HT-29 [4] = assay: Antitumor activity against human HT-29 cells xenografted in BALB/c mouse assessed as tumor growth inhibition at 250 mg/kg, ip followed by LED irradiation with repeated compound irradiation for thrice upto 3 weeks relative to control; type: functional; conditions: HT-29, light or radiation study, 504 h, read-out: TGI
WiDr [5] = assay: Photocytotoxicity against human WiDr cells assessed as lethal dose incubated for 18 hrs followed by replacement of medium containing compound with 48 hrs incubation and subsequent light irradiation of 13.5 mW/cm2 at 435 nm measured after 48 hrs by MTT assay; type: functional; conditions: light or radiation study, read-out: LD50 (the source's name)
WiDr [6] = assay: Photodynamic cytotoxicity against human WiDr cells assessed as reduction in cell viability at 50 nM incubated for 24 hrs followed by compound washout and 7.5 mW/cm2 light irradiation measured after 24 hrs by MTT assay relative to control; type: functional
WiDr [7] = assay: Photodynamic cytotoxicity against human WiDr cells assessed as cell growth inhibition measured after 24 hrs of 10J light irradiation by flow cytometry; type: functional, cell-based; conditions: light or radiation study
WiDr [8] = assay: Photodynamic cytotoxicity against human WiDr cells assessed as cell growth inhibition measured after 72 hrs of 10J light irradiation by flow cytometry; type: functional, cell-based; conditions: light or radiation study
HT-29 [9] = assay: Photodynamic cytotoxicity against human HT-29 cells assessed as reduction in cell viability at 19.4 J/cm2 light irradiation followed by immediate fresh medium replacement measured after 24 hrs by MTT assay relative to control; type: functional
HT-29 [10] = assay: Photodynamic cytotoxicity against human HT-29 cells assessed as reduction in cell viability at 19.4 J/cm2 light irradiation >570 nm followed by immediate fresh medium replacement measured after 24 hrs by MTT assay relative to control; type: functional
HT-29 [11] = assay: Photocytotoxicity against human HT-29 cells assessed as lethal dose incubated for 4 hrs followed by 3 J/cm2 LED irradiation and subsequent compound replenishment measured after 20 hrs by MTT assay; type: functional

Work on `C=CC1=C(C)c2cc3[nH]c(cc4nc(cc5[nH]c(cc1n2)c(C)c5C=C)C(C)=C4CCC(=O)O)c(CCC(=O)O)c3C` yielded an Activity (HT-29 [1]) of 40%, an Activity (HT-29 [2]) of 40% and an Activity (HT-29 [3]) of 20%. The inhibition in vivo at 250 mg/kg (HT-29 [4]) was 88%.

`C[N+](C)(C)c1ccc(-c2c3nc(c(-c4ccc([N+](C)(C)C)cc4)c4ccc([nH]4)c(-c4ccc([N+](C)(C)C)cc4)c4nc(c(-c5ccc([N+](C)(C)C)cc5)c5ccc2[nH]5)C=C4)C=C3)cc1` gave a CC50 (WiDr [5]) of 2000 nM.

With `O=S(=O)(O)c1ccc(-c2c3nc(c(-c4ccc(S(=O)(=O)O)cc4)c4ccc([nH]4)c(-c4ccc(S(=O)(=O)O)cc4)c4nc(c(-c5ccc(S(=O)(=O)O)cc5)c5ccc2[nH]5)C=C4)C=C3)cc1` the CC50 (WiDr [5]) was 100000 nM.

In the case of `O=C(O)c1ccc(-c2c3nc(c(-c4ccc(C(=O)O)cc4)c4ccc([nH]4)c(-c4ccc(C(=O)O)cc4)c4nc(c(-c5ccc(C(=O)O)cc5)c5ccc2[nH]5)C=C4)C=C3)cc1`, the CC50 (WiDr [5]) is reported as 15000 nM.

For `Oc1ccc(-c2c3nc(c(-c4ccc(O)cc4)c4ccc([nH]4)c(-c4ccc(O)cc4)c4nc(c(-c5ccc(O)cc5)c5ccc2[nH]5)C=C4)C=C3)cc1`, the CC50 (WiDr [5]) was 200 nM.

`Oc1ccc(Br)c(-c2c3nc(cc4ccc([nH]4)c(-c4cc(O)ccc4Br)c4nc(cc5ccc2[nH]5)C=C4)C=C3)c1` was tested, and the Activity (WiDr [6]) was over 50%, the IC50 (WiDr [7]) was 180 nM and the IC50 (WiDr [8]) was 140 nM.

Work on `Oc1ccc(Cl)c(-c2c3nc(cc4ccc([nH]4)c(-c4cc(O)ccc4Cl)c4nc(cc5ccc2[nH]5)C=C4)C=C3)c1` yielded an Activity (WiDr [6]) of over 50%.

`Oc1ccc(Br)c(-c2c3nc(c(-c4cc(O)ccc4Br)c4ccc([nH]4)c(-c4cc(O)ccc4Br)c4nc(c(-c5cc(O)ccc5Br)c5ccc2[nH]5)C=C4)C=C3)c1` was tested, and the IC50 (WiDr [7]) was 464 nM and the IC50 (WiDr [8]) was 620 nM.

Compound `C1=Cc2nc1c(-c1ccc3ccccc3n1)c1ccc([nH]1)c(-c1ccc3ccccc3n1)c1nc(c(-c3ccc4ccccc4n3)c3ccc([nH]3)c2-c2ccc3ccccc3n2)C=C1` has an Activity (HT-29 [9]) of 80% and an Activity (HT-29 [10]) of 10%.

In the case of `Oc1cccc(-c2c3nc(cc4ccc([nH]4)c(-c4cccc(O)c4)c4nc(cc5ccc2[nH]5)C=C4)C=C3)c1`, the Activity (WiDr [6]) is reported as over 50%.

With `Oc1cccc(-c2c3nc(cc4ccc([nH]4)c(-c4cccc(O)c4I)c4nc(cc5ccc2[nH]5)C=C4)C=C3)c1I` the Activity (WiDr [6]) was over 50%.

`Oc1cc(-c2c3nc(cc4ccc([nH]4)c(-c4ccc(I)c(O)c4)c4nc(cc5ccc2[nH]5)C=C4)C=C3)ccc1I` was tested, and the Activity (WiDr [6]) was over 50%.

`Oc1cccc(-c2c3nc(c(-c4cccc(O)c4)c4ccc([nH]4)c(-c4cccc(O)c4)c4nc(c(-c5cccc(O)c5)c5ccc2[nH]5)CC4)C=C3)c1` [TEMOPORFIN] gave an LD70 (HT-29 [11]) of 0.6 µg/mL and a CC50 (HT-29 [11]; Homo sapiens, HT-29, light or radiation study, read-out: LD50 (the source's name)) of 0.3 µg/mL (≈ 0.441 µM).
